Test results as given in patent US7858637B2, “Administration of TLR7 ligands and prodrugs thereof for treatment of infection by hepatitis C virus” (priority 2003, dated 2010).
Like-named read-outs stand apart in the source and are kept apart here.

Key:
HCV = HCV viral load reduction in patients, intravenous isatoribine; assay type: in vivo, human; conditions: 800 mg QD×7 days IV infusion
Procedure: All doses were administered by constant rate infusion over a 60-minute period, except the 800 mg dose was administered over an 80-minute period. The flow rate for each dose was as follows: 3.33 mL/min for the 200 mg dose; 6.67 mL/min for the 400 mg dose; 8.33 mL/min for the 500 mg dose; or 10.0 mL/min for the 600 mg and 800 mg dose. Four to twelve patients were enrolled in each of the dose groups (200 mg, 400 mg, 600 mg and 800 mg per dose) and received once daily intravenous infusions for 7 days. Prior to dosing, a blood sample was drawn from each patient for assessment of the genotype of the HCV virus. […] The viral load was measured by the branched DNA method ([…]3.0 bDNA assay, Bayer Diagnostics). For plasma HCV RNA, the maximum change from the pre-treatment baseline was estimated using log-transformed values.

HCV replicon = assay: HCV replicon-based viral bioassay with supernatants of compound-treated PBMC; assay type: cell-based, hepatitis C virus
Procedure: A quantitative assay was developed which is based on measuring the activity of the luciferase reporter gene that was integrated into an HCV replicon. By using this system, interferons from TLR7 agonist-treated PBMCs were measured and their inhibitory activity was assessed using the luciferase reporter replicon.
Human PBMCs isolated from a healthy donor were placed in replicate cell culture wells (5×10^6 cells per well). The PBMCs are incubated in the absence of test compounds at 37° C. in a humidified atmosphere containing 5% CO2 for 24 hours to allow stabilization to the culture conditions, and then the TLR7 ligand or a drug free control is added to replicate wells containing PBMCs from the same donor. The concentrations of TLR7 ligand may be varied to suit the particular experiment, and the PBMC cultures are then incubated at 37° C. in a humidified atmosphere containing 5% CO2 for eight hours. Samples of cell culture supernatant are taken at the eight hour time point (or twenty four hour time point in case of Loxoribine and its prodrugs) from TLR7 ligand treated and control wells and are assayed for interferon-alpha production by ELISA. Supernatants from compound-treated cells and a no-drug control were diluted at 1:10, 1:100, and 1:1000 in RPMI media and applied to a 96-well plate of Huh7 hepatocyte cells containing the luciferase reporter replicon. Cells were incubated for 48 hours at 37° C. in a tissue culture incubator.
After the incubation period, the 96-well plates are washed 2× with PBS and are lysed with passive lysis buffer (Promega). Plates are shaken at room temperature for 20 minutes and standard luciferase assay reagent (Promega) is added to each well by injection and the plate is read on an Lmax luminometer (Molecular Devices).
A supernatant collected from PBMC cells non-exposed to the compound and diluted as specified in the first column was used as a control (“Blank supernatant”). The PBMC cells were isolated from a single blood donor as specified.

[1] = test system: human peripheral blood mononuclear cells (PBMC); assay: PBMC assay of interferon alpha release (masking); assay type: cell-based; conditions: Homo sapiens, PBMC; Table 9; 100 μM; 24 hours exposure; same blood donor; read-out: Amount of INFa relative to that induced by isatoribine at 100 μM
[2] = Pharmacokinetics of isatoribine in beagle dogs after oral dosing; conditions: both, dog, in vivo, 50 mg/kg
Procedure: The effect of a prodrug (val-isatoribine, 24) on the systemic exposure to isatoribine (21) after oral administration to beagle dogs was investigated. Isatoribine was prepared in sodium bicarbonate solution. Val-isatoribine and isatoribine were prepared as the following formulations, which were chosen to ensure solubility: Formulation 1: […] Formulation 2: […] Four male and four female adult beagle dogs weighing between 15 to 27 kg and approximately 1-2 years old were used at the beginning of the study. The animals were divided into 2 groups of 2 males and 2 females each. The test material was administered by gavage on Days 1 and 8, allowing a 7 day washout period between administrations. […] The plasma was frozen at −70° C. until analysis. The plasma was analyzed for isatoribine by an HPLC-MS/MS assay.

[3] = Toxicology studies, GI tolerance in beagle dogs; assay type: in vivo, beagle dog; conditions: dog, in vivo, iv
From the text: We compared in the dog the oral toxicology of 21 and 24, and the intravenous toxicology of 21. We observed that the oral toxicology of 24 was much more like intravenous 21 than it was like oral 21.

[4] = cited from earlier work

Nc1nc2c(sc(=O)n2[C@@H]2O[C@H](CO)[C@@H](O)[C@H]2O)c(=O)[nH]1 [Compound 21, 7-thia-8-oxoguanosine]
patients with plasma viral load decrease of more than 0.5 log 10 units (HCV): Eight of 12
mean change in plasma viral load (HCV RNA) from baseline (HCV; 12 patients): −0.76 log 10 units
range of change in plasma viral load (HCV RNA) from baseline (HCV; 12 patients): −2.85 to +0.21 log 10 units
HCV replicon inhibition (HCV replicon; Table 3 No. 1, PBMC exposed 8 hours to 100 μM, donor FL72035, supernatant dilution 1:100): 100%
HCV replicon inhibition (HCV replicon; Table 3 No. 1, PBMC exposed 8 hours to 100 μM, donor FL72035, supernatant dilution 1:1000): 94%
HCV replicon inhibition (HCV replicon; Table 3 No. 2, PBMC exposed 8 hours to 100 μM, donor FL75287, supernatant dilution 1:10): 100%
HCV replicon inhibition (HCV replicon; Table 3 No. 2, PBMC exposed 8 hours to 100 μM, donor FL75287, supernatant dilution 1:100): 87%
HCV replicon inhibition (HCV replicon; Table 3 No. 2, PBMC exposed 8 hours to 100 μM, donor FL75287, supernatant dilution 1:1000): 6%
HCV replicon inhibition (HCV replicon; Table 3 No. 3, PBMC exposed 24 hours to 100 μM, donor FL75864, supernatant dilution 1:10): 100%
HCV replicon inhibition (HCV replicon; Table 3 No. 3, PBMC exposed 24 hours to 100 μM, donor FL75864, supernatant dilution 1:100): 99%
HCV replicon inhibition (HCV replicon; Table 3 No. 3, PBMC exposed 24 hours to 100 μM, donor FL75864, supernatant dilution 1:1000): 64%
Emax at 100 µM [1]: 100%
AUC Ratio (to isatoribine in bicarbonate solution) [2]: 1.00
Cmax Ratio (to isatoribine in bicarbonate solution) [2]: 1.00
Emesis or loose stool ([3]; 12.5 mg/kg): Neg.
GI lesions or irritation ([3]; 12.5 mg/kg): Neg.
Emesis or loose stool ([3]; 25 mg/kg): Neg.
GI lesions or irritation ([3]; 25 mg/kg): Neg.
Emesis or loose stool ([3]; 50 mg/kg): +
GI lesions or irritation ([3]; 50 mg/kg): Neg.
Emesis or loose stool ([3]; 100 mg/kg): ++
GI lesions or irritation ([3]; 100 mg/kg): Neg.
Emesis or loose stool ([4]; dog, in vivo, po, 2.5 mg/kg): Neg.
GI lesions or irritation ([4]; dog, in vivo, po, 2.5 mg/kg): Neg.
Emesis or loose stool ([4]; dog, in vivo, po, 5 mg/kg): +
GI lesions or irritation ([4]; dog, in vivo, po, 5 mg/kg): Neg.
Emesis or loose stool ([4]; dog, in vivo, po, 10 mg/kg): ++
GI lesions or irritation ([4]; dog, in vivo, po, 10 mg/kg): ++
multiple, scattered red lesions on the intestinal mucosa (gross histopathologic evaluation of the GI tract) ([4]; dog, in vivo, po, 10 mg/kg): four of eight dogs
NOAEL ([4]; dogs, orally administered, established by the GI effects): 5 mg/kg
